In BindingDB's records for doi:10.1111/cbdd.12570 (University of Milano, 2015) one finds IC50 data, which are given here for 12 molecules.

Structures can show the parent of a compound that is named as a salt.

Putative heat shock protein HSP 90-alpha A4, sequence (Q58FG1 whole entry): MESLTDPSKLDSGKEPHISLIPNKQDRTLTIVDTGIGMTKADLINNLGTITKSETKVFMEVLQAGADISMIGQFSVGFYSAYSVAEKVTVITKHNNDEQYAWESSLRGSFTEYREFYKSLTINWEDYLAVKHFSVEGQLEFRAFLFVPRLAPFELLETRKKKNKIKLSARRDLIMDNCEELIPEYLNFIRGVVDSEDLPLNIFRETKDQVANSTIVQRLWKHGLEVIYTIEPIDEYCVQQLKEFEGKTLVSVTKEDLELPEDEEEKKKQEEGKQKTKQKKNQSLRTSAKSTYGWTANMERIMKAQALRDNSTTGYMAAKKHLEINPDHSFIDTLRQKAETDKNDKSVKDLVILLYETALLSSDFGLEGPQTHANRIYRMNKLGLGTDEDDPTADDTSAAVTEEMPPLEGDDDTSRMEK

For this assay, the target named is Putative heat shock protein HSP 90-alpha A4 (Homo sapiens, UniProt Q58FG1). Description: Fluorescence Polarization (FP) Assay. How it is done:
The fluorescence polarization (FP) assay was performed as described in the reference (Bioorg Med Chem. 2010. 18:6031-6043).
Background: Polarisation of emitted light reports the rotation of a fluorescent probe.
Molecule `Oc1cc(O)c(-c2noc3c2CCCC3O)cc1Cl` (configuration not stated) [3-(5-chloro-2,4-dihydroxyphenyl)-4,5,6,7-tetrahydro-benzo[d]isoxazol-7-ol (14)] returned an IC50 of 26 µM. Molecule `NCCON=C1CCCc2c(-c3cc(Cl)c(O)cc3O)noc21` [3-(5-chloro-2,4-dihydroxyphenyl)-5,6-dihydro-4H-benzo[d]isoxazol-7-one O-(2-aminoethyl)-oxime hydrochloride (16)] had an IC50 of 6.3 µM. `ON=C1CCCc2c(-c3cc(Cl)c(O)cc3O)noc21` [3-(5-chloro-2,4-dihydroxyphenyl)-5,6-dihydro-4H-benzo[d]isoxazol-7-one oxime (15)]: half-maximal inhibition (IC50) was put at 0.8 µM.

The molecule `CN1CCc2c(-c3cc(Cl)c(O)cc3O)noc2C1=O` [3-(5-chloro-2,4-dihydroxyphenyl)-5,6-dihydro-6-methylisoxazolo[5,4-c]pyridin-7(4H)-one (9a)] came in with an IC50 of 10 µM. To `O=C1CCCc2c(-c3cc(Cl)c(O)cc3O)noc21` [3-(5-chloro-2,4-dihydroxyphenyl)-5,6-dihydrobenzo[d]isoxazol-7(4H)-one (13)] belongs 4.8 µM; to `O=C1NCCc2c(-c3cc(Cl)c(O)cc3O)noc21` [3-(5-chloro-2,4-dihydroxyphenyl)-5,6-dihydroisoxazolo[5,4-c]pyridin-7(4H)-one (9b)], 1.6 µM. For `NCCON=C1CCCc2c(-c3ccc(C(N)=O)cc3)noc21` [4-(7-(2-Aminoethoxyimino)-4,5,6,7-tetrahydrobenzo[d]isoxazol-3-yl)-benzamide hydrochloride (21c)], the IC50 was more than 100 µM. Then `NC(=O)c1ccc(-c2noc3c2CCCC3=NOCCN2CCOCC2)cc1` [4-(7-(2-Morpholin-4-yl-ethoxyimino)-4,5,6,7-tetrahydrobenzo[d]isoxazol-3-yl)benzamide (21b)], with more than 100 µM. Then `NC(=O)c1ccc(-c2noc3c2CCCC3O)cc1` (configuration not stated) [4-(7-Hydroxy-4,5,6,7-tetrahydro-benzo[d]isoxazol-3-yl)benzamide (22)], with more than 100 µM. To `NC(=O)c1ccc(-c2noc3c2CCCC3=NO)cc1` [4-(7-Hydroxyimino-4,5,6,7-tetrahydro-benzo[d]isoxazol-3-yl)benzamide (21a)] belongs more than 100 µM; to `NC(=O)c1ccc(-c2noc3c2CCCC3=O)cc1` [4-(7-Oxo-4,5,6,7-tetrahydrobenzo[d]isoxazol-3-yl)-benzamide (20)], more than 100 µM; to `C=CCNC1=C2C[C@@H](C)C[C@H](OC)C[C@@H](C)/C=C/[C@H](OC(N)=O)[C@@H](OC)/C=C\C=C(/C)C(=O)NC(=CC1=O)C2=O` [17-AAG], 1.09 µM.

Usually IC50 stands for the concentration at which inhibition is half-maximal. Higher therefore signals lower potency.
